pIC50: −log10 of the molar value.

IC50 data for 2 compounds are collected here from ChEMBL document CHEMBL3886974, “Imidazopyrazines” (2016).

For the assay, the target named is T1, Dual specificity protein kinase TTK (Homo sapiens, UniProt P33981).
T1 sequence (P33981 whole entry): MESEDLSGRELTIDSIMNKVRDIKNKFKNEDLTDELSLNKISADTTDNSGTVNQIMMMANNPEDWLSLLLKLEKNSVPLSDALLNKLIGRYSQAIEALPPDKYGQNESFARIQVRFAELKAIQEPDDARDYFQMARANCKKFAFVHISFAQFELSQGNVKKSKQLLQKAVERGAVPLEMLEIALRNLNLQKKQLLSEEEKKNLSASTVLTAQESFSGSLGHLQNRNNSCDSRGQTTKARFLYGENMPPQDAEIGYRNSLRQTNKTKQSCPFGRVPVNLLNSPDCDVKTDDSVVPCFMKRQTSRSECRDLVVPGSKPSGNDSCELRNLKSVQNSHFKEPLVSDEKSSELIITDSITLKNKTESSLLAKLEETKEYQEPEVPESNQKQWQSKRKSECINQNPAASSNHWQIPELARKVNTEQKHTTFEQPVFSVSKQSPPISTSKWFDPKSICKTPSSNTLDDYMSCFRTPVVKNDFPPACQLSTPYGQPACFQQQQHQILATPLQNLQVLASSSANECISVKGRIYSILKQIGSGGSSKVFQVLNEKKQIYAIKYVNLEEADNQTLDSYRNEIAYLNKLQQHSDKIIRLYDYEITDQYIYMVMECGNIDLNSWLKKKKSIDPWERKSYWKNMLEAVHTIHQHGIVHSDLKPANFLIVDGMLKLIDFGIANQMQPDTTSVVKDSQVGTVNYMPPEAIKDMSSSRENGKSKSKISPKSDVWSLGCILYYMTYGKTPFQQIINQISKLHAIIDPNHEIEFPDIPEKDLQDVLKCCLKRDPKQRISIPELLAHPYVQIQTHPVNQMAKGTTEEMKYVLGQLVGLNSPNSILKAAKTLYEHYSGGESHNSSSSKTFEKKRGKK
Briefly: Kinase Assay: For the assay 50 nl of a 100-fold concentrated solution of the test compound in DMSO was pipetted into a black low volume 384 well microtiter plate (Greiner Bio-One, Frickenhausen, Germany), 2 ul of a solution of Mps-1 in assay buffer [0.1 mM sodium-ortho-vanadate, 10 mM MgCl2, 2 mM DTT, 25 mM Hepes pH 7.7, 0.05% BSA, 0.001% Pluronic F-127] were added and the mixture was incubated for 15 min at 22° C. to allow pre-binding of the test compounds to Mps-1 before the start of the kinase reaction. Then the kinase reaction was started by the addition of 3 ul of a solution of 16.7 adenosine-tri-phosphate (ATP, 16.7 uM=>final conc. in the 5 ul assay volume is 10 uM) and peptide substrate (1.67 uM=>final conc. in the 5 ul assay volume is 1 uM) in assay buffer and the resulting mixture was incubated for a reaction time of 60 min at 22° C. The concentration of Mps-1 in the assay was adjusted to the activity of the enzyme lot and was chosen appropriate to have the assay in the linear range, typical enzyme concentrations were in the range of about 1 nM (final conc. in the 5 ul assay volume). […].

As for `CSc1nc(C#CCO)cn2c(-c3ccc(-c4cnc(C5CC5)[nH]4)cc3)cnc12`, the pIC50 is 6.82.

Consider `CSc1nc(-c2ccccc2)cn2c(-c3ccc(C(=O)NC4CC4)cc3)cnc12`, for which the negative logarithm of the IC50 (pIC50) was 7.59.
